Two molecules from patent US11795200B2, “Nano small peptide and its use in preparation of drugs for treating and preventing fundus vascular diseases” (FUTU Biotech Co., Ltd., priority 2021, dated 2023) can be followed below.

Assay [1] deals with OIR model mice. The assay is described as follows: Fundus angiogenesis in OIR model (Isolectin B4, confocal). Format: in vivo, mouse. The settings on record: for percentage of abnormal blood vessels in the total retinal area: 2 nmol injected into the vitreous on day 12, read on day 17; for treatment effect on fundus angiogenesis compared with BMA-12: 2 nmol vs 1 μg BMA-12, intravitreal. The protocol:
Treatment group (OIR): After giving birth, 3-4 month old C57BL/6 mother mice were placed in an oxygen chamber with 75% oxygen together with 7 day old young mice, and the young mice and the mother mice were taken out on the 12th day of birth of the young mice. Immediately after the young mice were anesthetized, 2 nmol of FH, 2 nmol of FG, and 1 μg of Sema4D neutralizing antibody (BMA-12) (BMA-12, i.e., anti-Sema4D) were injected into the vitreous, and an equal volume of DMSO was used as a control. The young mice were then further raised in normal air for 5 days; the young mice were anesthetized on the 17th day of birth, and after cardiac perfusion with normal saline, the eyeballs were separated and then fixed, stained with Isolectin B4 overnight at 4° C., flatly spread on a glass slide, and photographed.
Control group (Normal): Young mice, grown with normoxia, were anesthetized on the 17th day of birth. After cardiac perfusion with normal saline, the eyeballs were taken out, and the retinas were peeled off and then fixed with 4% paraformaldehyde, stained with Isolectin B4 at 4° C. overnight, flatly spread on a glass slide, and photographed
Laser confocal was carried out to detect retinal angiogenesis, and ImageJ was carried out to calculate the ratio of retinal neovascularization clusters to the entire retinal area, that is, the proportion of new blood vessels. […] It can be seen in FIG. 4A that the treatment effect of FH is the best.

Assay [2] has as its system OIR model mice. The assay is described as follows: Evans blue leakage test, fundus vascular leakage. Format: in vivo, mouse. The following applies: for vascular leakage of the fundus: 2 nmol injected into the vitreous; for treatment effect on vascular leakage compared with anti-Sema4D: 2 nmol vs 1 μg BMA-12, intravitreal.
Assay [3] concerns primary mouse brain microvascular endothelial cells. The assay is described as follows: sSema4D-induced endothelial cell migration (transwell experiment). The settings on record: 24 h; for inhibition of endothelial cell migration compared with BMA-12: 20 μM vs BMA-12 2 μg/μL; for sSema4D-induced endothelial cell migration: 20 μM, sSema4D 1600 ng/mL. Format: cell-based. The protocol: The primary mouse brain microvascular endothelial cells were starved with 0.5% ECM for 4 to 6 h. The mouse brain microvascular endothelial cells were seeded in the upper layer of a 24-well transwell chamber ([…]). 1% ECM medium containing FH (20 μM), FG (20 μM), and Sema4D neutralizing antibody (BMA-12) (2 μg/μL) (the concentration of sSema4D in the medium is 1600 ng/mL) was added to the lower chamber, and an equal volume of DMSO was added as control. The cells were incubated in a 5% CO2 incubator at 37° C. for 24 h. 24 h later, the cells on the bottom of the chamber were fixed with 4% paraformaldehyde and stained with crystal violet, and the endothelial cells that penetrated to the bottom of the chamber were counted under a microscope.

For assay [4], the system named is mouse brain microvascular endothelial cells. The assay is described as follows: sSema4D-induced endothelial cell leakage (transmembrane resistance). Format: cell-based. The following applies: 36 h; for effect on endothelial cell leakage compared with BMA-12: 20 μM vs BMA-12 2 μg/μL; for sSema4D-induced endothelial cell leakage: 20 μM, sSema4D 1600 ng/mL. The protocol: A layer of fibronectin was first applied to coat the upper layer of a 24-well transwell chamber (0.4 um) and incubated at room temperature for 1 h; after coating, the mouse brain microvascular endothelial cells were seeded, and cultured for 5 days until the cells were full, and then FH (20 μM), FG (20 μM), and Sema4D neutralizing antibody (BMA-12) (2 μg/μL) were added to the medium (the concentration of sSema4D in the medium was 1600 ng/mL), respectively. An equal volume of DMSO was added as a control, and ECM was used as a blank control. After incubation for 36 h, the resistance value was measured by a cell transmembrane resistance measuring instrument.

Assay [5] concerns the target T1, sSema4D (Mus musculus, UniProt O09126).
T1 sequence (O09126 24-733 limits assumed): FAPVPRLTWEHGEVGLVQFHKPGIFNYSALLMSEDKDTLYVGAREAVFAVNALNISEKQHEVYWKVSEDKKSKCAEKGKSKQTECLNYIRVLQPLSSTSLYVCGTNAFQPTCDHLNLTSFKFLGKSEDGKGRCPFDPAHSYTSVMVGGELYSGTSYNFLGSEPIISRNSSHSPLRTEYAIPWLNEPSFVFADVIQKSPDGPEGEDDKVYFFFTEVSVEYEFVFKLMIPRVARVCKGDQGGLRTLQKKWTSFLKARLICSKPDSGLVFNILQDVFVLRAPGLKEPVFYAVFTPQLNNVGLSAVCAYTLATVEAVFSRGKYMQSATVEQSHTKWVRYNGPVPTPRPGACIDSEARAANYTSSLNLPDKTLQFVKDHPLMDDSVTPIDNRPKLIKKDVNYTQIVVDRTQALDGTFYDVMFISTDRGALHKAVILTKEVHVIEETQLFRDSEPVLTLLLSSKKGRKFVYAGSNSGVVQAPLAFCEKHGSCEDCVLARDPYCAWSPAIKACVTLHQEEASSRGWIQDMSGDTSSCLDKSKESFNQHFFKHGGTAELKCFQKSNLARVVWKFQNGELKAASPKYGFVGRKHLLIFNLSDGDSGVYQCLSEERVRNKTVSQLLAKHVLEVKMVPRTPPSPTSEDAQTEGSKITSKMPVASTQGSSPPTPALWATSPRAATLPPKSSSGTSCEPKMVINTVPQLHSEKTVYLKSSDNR
The assay is described as follows: ELISA of sSema4D in vitreous humor after eye drops. More on the design: from tissue; host or cells: vitreous humor of C57 mice. The following applies: eye drops 10 μL of 20 μM, twice daily, 3 days. Format: in vivo. The source says: In this example, 8-week-old C57 male mice were used, with ten data points in each group, and each data point was the average of the experimental results of 5 mice.
The water on the eyeballs was then removed with filter paper to release and collect the vitreous humor. ELISA kit (Shanghai Yuanmu Biotechnology Co., Ltd.) was used to detect the expression of sSema4D protein in vitreous humor.
Control group was instilled with the same volume of PBS solution; vehicle group was instilled the same volume of artificial tears (Systane).

Assay [6] addresses T1, sSema4D. The assay is described as follows: Reduction of sSema4D concentration in a simple medium system (ELISA). In kind it is biochemical. More on the design: the free Sema4D protein after enzyme cleavage of Sema4D; purchased R&D Systems. The following applies: for sSema4D concentration: medium with 1600 ng/mL sSema4D, FH, FG 20 μM, BMA-12 2 μg/μL. The protocol:
The nano small peptides FH, FG, DMSO, and Sema4D neutralizing antibody (BMA-12) were added to the medium (the concentration of sSema4D in the medium was 1600 ng/mL) to ensure that the final concentration of FH and FG was 20 μM, and the final concentration of the Sema4D neutralizing antibody (BMA-12) (BMA-12, i.e., anti-Sema4D) was 2 μg/μL, an equal volume of DMSO was then added as a control, and culture plates were set still at 37° C. for 12, 24, 36, and 48 h, and the culture medium was collected, and the expression of Sema4D protein in the supernatant was detected using an ELISA kit (Shanghai Yuanmu Biotechnology Co., Ltd.).
(ELISA stands for enzyme-linked immunosorbent assay.)

Non-standard residues stand in square brackets, D forms with d. Residues, ends and D or L forms follow the SMILES beside them. No end group written: not given here. *: point of attachment. Palmitoyl = CCCCCCCCCCCCCCCC(=O)*

For `CCCCCCCCCCCCCCCC(=O)N[C@H](Cc1ccccc1)C(=O)N[C@@H](Cc1ccccc1)C(=O)N[C@H](C(=O)N[C@@H](CC(C)C)C(=O)N[C@@H](CCCCN)C(=O)N[C@@H](CCCCN)C(=O)N[C@@H](CCC(N)=O)C(=O)N[C@@H](CCCCN)C(=O)N[C@@H](CCCNC(=N)N)C(=O)N1CCC[C@H]1C(=O)N[C@@H](CCCNC(=N)N)C(=O)N[C@@H](Cc1c[nH]cn1)C(=O)O)C(C)C` [FH] (Palmitoyl-[dF]FVLKKQKRPRH-OH), in the assay with OIR model mice [1], the “percentage of abnormal blood vessels in the total retinal area” value is “reduce the percentage of abnormal blood vessels in the total retinal area” and the “treatment effect on fundus angiogenesis compared with BMA-12” value is “comparable to that of the Sema4D neutralizing antibody (BMA-12)”. Moreover, the “treatment effect among groups in FIG. 4A” value in the assay on OIR model mice [1] (2 nmol intravitreal) was “the best”. In the assay with OIR model mice [2], the “vascular leakage of the fundus” value was “can inhibit vascular leakage of the fundus” and the “treatment effect on vascular leakage compared with anti-Sema4D” value is reported as “comparable to that of anti-Sema4D”. Also, in assay [3], the “inhibition of endothelial cell migration compared with BMA-12” value was “more effective in inhibiting endothelial cell migration than Sema4D neutralizing antibody (BMA-12)” and the “sSema4D-induced endothelial cell migration” value is recorded as “can significantly inhibit the sSema4D-induced endothelial cell migration”. For the same molecule, in assay [4], the “effect on endothelial cell leakage compared with BMA-12” value is on record as “comparable to that of Sema4D neutralizing antibody (BMA-12)” and the “sSema4D-induced endothelial cell leakage” value is listed as “can significantly inhibit sSema4D-induced endothelial cell leakage”. Besides, the “expression of sSema4D protein in the vitreous humor” value on sSema4D [5] is on record as “reduce the expression of sSema4D protein in the vitreous humor”. For the same molecule, the sSema4D concentration entry at sSema4D [6] (24 h) is “can reduce the sSema4D concentration”. Moreover, the sSema4D concentration entry at sSema4D [6] (36 h) was “can still reduce the sSema4D concentration”. The “effect on sSema4D concentration, FH compared with FG” value on sSema4D [6] (within the same action time, 20 μM) is on record as “better than that of FG”.

In the case of Palmitoyl-FFVLKKNKAAKG [FG], in the assay with OIR model mice [1], the “percentage of abnormal blood vessels in the total retinal area” value was “reduce the percentage of abnormal blood vessels in the total retinal area” and the “treatment effect on fundus angiogenesis compared with BMA-12” value is recorded as “comparable to that of the Sema4D neutralizing antibody (BMA-12)”. In the assay with OIR model mice [2], the “vascular leakage of the fundus” value is recorded as “can inhibit vascular leakage of the fundus” and the “treatment effect on vascular leakage compared with anti-Sema4D” value is “comparable to that of anti-Sema4D”. Also, in assay [3], the “inhibition of endothelial cell migration compared with BMA-12” value is on record as “more effective in inhibiting endothelial cell migration than Sema4D neutralizing antibody (BMA-12)” and the “sSema4D-induced endothelial cell migration” value is given as “can significantly inhibit the sSema4D-induced endothelial cell migration”. In addition, in assay [4], the “effect on endothelial cell leakage compared with BMA-12” value is reported as “comparable to that of Sema4D neutralizing antibody (BMA-12)” and the “sSema4D-induced endothelial cell leakage” value is recorded as “can significantly inhibit sSema4D-induced endothelial cell leakage”. Also, on sSema4D [5], the “expression of sSema4D protein in the vitreous humor” value was “reduce the expression of sSema4D protein in the vitreous humor”. Also, at sSema4D [6] (24 h), the sSema4D concentration entry is recorded as “can reduce the sSema4D concentration”. The sSema4D concentration entry at sSema4D [6] (36 h) was “can still reduce the sSema4D concentration”.
